Values of other authors, collected in patent publication US20120028943A1, “Medicinal Cream Made Using Fluticasone Propionate And Chitosan And A Process To Make The Same” (APEX LABORATORIES PRIVATE LIMITED, priority 2009, published 2012).

Tests used:
[1] = molecular target: T1, human glucocorticoid receptors (Homo sapiens, UniProt P04150)
T1 sequence (P04150 1-777): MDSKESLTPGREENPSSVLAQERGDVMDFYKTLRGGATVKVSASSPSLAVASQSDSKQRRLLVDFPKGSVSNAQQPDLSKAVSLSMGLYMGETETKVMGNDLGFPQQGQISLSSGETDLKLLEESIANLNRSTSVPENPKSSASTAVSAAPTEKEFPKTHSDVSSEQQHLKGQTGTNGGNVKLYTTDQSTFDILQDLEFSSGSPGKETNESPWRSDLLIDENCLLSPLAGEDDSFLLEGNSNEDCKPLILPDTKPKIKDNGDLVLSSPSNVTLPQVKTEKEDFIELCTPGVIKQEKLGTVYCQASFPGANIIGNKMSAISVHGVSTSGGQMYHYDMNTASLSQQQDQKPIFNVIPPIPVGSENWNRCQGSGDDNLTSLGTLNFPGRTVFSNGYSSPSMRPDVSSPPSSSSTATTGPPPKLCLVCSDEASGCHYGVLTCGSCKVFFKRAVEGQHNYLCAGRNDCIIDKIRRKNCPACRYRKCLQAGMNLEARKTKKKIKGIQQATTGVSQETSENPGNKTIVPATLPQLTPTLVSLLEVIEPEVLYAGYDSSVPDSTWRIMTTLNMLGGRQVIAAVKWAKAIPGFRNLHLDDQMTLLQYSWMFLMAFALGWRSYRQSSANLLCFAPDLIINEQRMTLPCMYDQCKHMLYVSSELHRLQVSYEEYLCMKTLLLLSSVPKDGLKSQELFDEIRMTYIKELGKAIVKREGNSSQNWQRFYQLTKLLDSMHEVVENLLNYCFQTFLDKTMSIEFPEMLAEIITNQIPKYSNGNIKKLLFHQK

[2] = molecular target: T1, human glucocorticoid receptors; conditions: in vitro
[3] = not given; remark: listed apart in the source
[4] = system: HPA (hypothalamic-pituitary-adrenal)-axis; conditions: after dermal administration
human plasma proteins = conditions: averaged
human transcortin = molecular target: T2, human transcortin (Homo sapiens, UniProt P08185)
T2 sequence (P08185 23-405): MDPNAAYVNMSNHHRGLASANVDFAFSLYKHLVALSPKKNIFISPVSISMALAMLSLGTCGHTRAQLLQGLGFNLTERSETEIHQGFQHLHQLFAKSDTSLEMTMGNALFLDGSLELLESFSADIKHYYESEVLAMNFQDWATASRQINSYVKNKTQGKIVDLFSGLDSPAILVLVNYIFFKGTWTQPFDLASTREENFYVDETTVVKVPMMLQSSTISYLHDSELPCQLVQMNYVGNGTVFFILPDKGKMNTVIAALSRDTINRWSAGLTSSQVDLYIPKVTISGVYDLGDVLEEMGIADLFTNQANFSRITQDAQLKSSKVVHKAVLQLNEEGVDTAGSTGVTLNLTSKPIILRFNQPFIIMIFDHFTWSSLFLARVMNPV

cytochrome P450 3A4 = cytochrome P450 3A4 (Homo sapiens, UniProt P08684); conditions: liver
Sequence of cytochrome P450 3A4 (P08684 whole entry): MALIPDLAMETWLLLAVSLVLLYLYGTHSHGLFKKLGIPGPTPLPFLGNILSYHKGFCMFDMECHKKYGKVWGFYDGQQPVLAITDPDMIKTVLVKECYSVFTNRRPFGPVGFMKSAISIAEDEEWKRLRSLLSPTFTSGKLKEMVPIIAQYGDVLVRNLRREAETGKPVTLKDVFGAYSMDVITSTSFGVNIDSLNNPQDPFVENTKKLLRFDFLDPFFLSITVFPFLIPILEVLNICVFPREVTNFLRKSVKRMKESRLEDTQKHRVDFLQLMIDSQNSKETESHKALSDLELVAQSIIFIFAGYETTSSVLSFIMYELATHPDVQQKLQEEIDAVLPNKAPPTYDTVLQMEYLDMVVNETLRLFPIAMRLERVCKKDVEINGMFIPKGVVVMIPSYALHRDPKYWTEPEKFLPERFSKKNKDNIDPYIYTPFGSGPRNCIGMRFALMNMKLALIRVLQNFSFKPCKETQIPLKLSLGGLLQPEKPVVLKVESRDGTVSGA

solubility in 95% ethanol (95% ethanol): slightly soluble
solubility in dimethyl sulfoxide (dimethyl sulfoxide): freely soluble
solubility in dimethylformamide (dimethylformamide): freely soluble
solubility in methanol (methanol): slightly soluble
solubility in water (water): practically insoluble
selectivity to the glucocorticoid receptor [1]: high degree of selectivity
affinity for human glucocorticoid receptors ([1]; in vitro): strong affinity
agonist activity at human glucocorticoid receptors [2]: agonist activity
HPA-axis suppressive activity [4]: low
percentage bound to human plasma proteins (human plasma proteins): 91%
binding to erythrocytes (erythrocytes): weakly and reversibly bound
binding to human transcortin (human transcortin): not significantly hound
SMILES: CCC(=O)O[C@]1(C(=O)SCF)[C@H](C)C[C@H]2[C@@H]3C[C@H](F)C4=CC(=O)C=C[C@]4(C)[C@@]3(F)[C@@H](O)C[C@@]21C [Fluticasone propionate, S-(fluoromethyl)6α,9-difluoro-11β-17-dihydroxy-16α-methyl-3-oxoandrosta-1,4-diene-17β-carbothioate, 17-propionate]
topical anti-inflammatory potency [3]: high
metabolism (cytochrome P450 3A4): metabolized in the liver by cytochrome P450 3A4-mediated hydrolysis
